Columns and labels:
[1] = biological target: T1, CYP2D6 (Homo sapiens, UniProt P10635); assay: CYPs inhibition in pooled human liver microsomes, probe substrate Dextromethorphan; assay type: in vitro ADME
T1 construct: 0.2 mg/mL human liver microsomes was pre-incubated in 180 μL reaction mixture; from tissue; host or cells: pooled human liver microsomes
Protocol: (§1) The inhibitory potential of test articles in pooled human liver microsomes was evaluated by the method using a cocktail of CYP substrates. […] For the negative control well, the test articles was replaced with 20 μL reaction buffer. After 10 min of pre-incubation at 37° C., 20 μL 10 mM NADPH cofactor was added to the pre-reaction mixtures. After another 10 min incubation, the reaction was stopped by adding 400 μL of ice cold acetonitrile solution containing tolbutamide and labetalol served as internal standards. The incubation mixtures were centrifuged at 4000×g for 20 min, and then the supernatants were analyzed by LC-MS/MS after dilution. SigmaPlot was applied to plot % control activity versus the test compound concentrations, and for non-linear regression analysis of the data. IC50 values of test articles were determined using 3-parameter logistic equation.

[2] = biological target: T2, CYP1A2 (Homo sapiens, UniProt P05177); assay: CYPs inhibition in pooled human liver microsomes, probe substrate Phenacetin; assay type: in vitro ADME
T2 construct: 0.2 mg/mL human liver microsomes was pre-incubated in 180 μL reaction mixture; from tissue; host or cells: pooled human liver microsomes
T2 sequence (P05177 1-516): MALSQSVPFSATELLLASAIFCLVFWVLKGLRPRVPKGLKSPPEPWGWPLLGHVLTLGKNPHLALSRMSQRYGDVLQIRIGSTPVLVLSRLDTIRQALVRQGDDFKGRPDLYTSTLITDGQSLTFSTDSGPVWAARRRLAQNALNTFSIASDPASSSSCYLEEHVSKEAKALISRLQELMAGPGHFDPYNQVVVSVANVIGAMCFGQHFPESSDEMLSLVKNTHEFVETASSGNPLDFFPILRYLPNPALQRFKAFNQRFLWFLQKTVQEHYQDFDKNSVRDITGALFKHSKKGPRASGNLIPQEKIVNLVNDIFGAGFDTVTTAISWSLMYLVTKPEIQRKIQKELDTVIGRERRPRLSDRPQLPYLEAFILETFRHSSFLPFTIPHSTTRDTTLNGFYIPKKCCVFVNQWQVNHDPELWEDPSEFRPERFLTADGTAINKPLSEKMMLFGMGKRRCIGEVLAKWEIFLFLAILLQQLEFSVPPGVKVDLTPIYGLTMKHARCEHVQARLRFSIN
Protocol: as §1

[3] = biological target: T3, FLT3D835Y (Homo sapiens, UniProt P36888, D835Y); assay: FLT3D835Y microfluidic kinase assay; assay type: biochemical
T3 construct: purchased Carna Biosciences
T3 sequence (P36888 27-993 D835Y): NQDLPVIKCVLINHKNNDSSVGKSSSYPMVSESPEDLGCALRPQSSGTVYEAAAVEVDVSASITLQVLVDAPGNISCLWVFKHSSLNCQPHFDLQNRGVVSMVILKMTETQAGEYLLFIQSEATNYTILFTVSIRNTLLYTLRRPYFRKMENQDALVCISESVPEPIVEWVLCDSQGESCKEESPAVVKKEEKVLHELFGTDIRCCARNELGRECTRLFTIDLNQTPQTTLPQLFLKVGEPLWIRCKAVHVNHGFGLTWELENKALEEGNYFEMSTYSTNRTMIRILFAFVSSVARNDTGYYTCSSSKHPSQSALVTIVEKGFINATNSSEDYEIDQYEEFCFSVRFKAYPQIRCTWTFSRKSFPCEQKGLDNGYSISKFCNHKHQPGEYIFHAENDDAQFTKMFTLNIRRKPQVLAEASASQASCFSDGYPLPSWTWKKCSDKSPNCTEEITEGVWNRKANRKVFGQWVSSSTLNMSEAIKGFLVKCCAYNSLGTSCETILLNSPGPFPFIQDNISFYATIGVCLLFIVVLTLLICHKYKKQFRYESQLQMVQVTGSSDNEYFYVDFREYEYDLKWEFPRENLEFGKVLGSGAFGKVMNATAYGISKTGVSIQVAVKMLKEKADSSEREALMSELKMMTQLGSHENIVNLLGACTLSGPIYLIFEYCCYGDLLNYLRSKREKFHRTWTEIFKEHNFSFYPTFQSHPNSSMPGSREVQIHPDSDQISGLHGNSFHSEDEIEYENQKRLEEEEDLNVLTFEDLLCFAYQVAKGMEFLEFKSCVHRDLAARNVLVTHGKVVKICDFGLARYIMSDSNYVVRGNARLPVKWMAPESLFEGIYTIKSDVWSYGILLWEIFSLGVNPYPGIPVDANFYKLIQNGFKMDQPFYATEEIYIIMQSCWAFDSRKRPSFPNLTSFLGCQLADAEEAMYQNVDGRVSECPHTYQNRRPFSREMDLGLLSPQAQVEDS
Protocol: Compounds were tested against FLT3, FLT3ITD and FLT3D835Y.
Assay Formats: FLT3 activity was determined in the reaction buffer 50 mM HEPES, 10 mM MgCl2 and 2 mM DTT by a microfluidic assay. The phosphorylation of a FAM labeled peptide substrate was monitored in the Caliper EZ Reader II (Perkin Elmer). The assay condition for each batch of enzyme (Carna Biosciences) was optimized to obtain 10% conversion rate of peptide substrate.
The test compounds were dissolved in DMSO to a stock concentration of 10 mM. 3-fold serially diluted compounds with top concentration of 5 μM were pre-incubated with FLT3, FLT3ITD or FLT3D835Y for 10 min at ambient temperature. The final DMSO concentration of assay mixture was 1%. […] The reaction was stopped by adding 50 mM EITA. The reaction time for FLT3, FLT3ITD and FLT3D8335Y was 30 min, 40 min and 40 min, respectively.
And the well without compound but with equivalent DMSO was defined as no inhibition. The percent inhibition was calculated by the following formula. % Inhibition=(Conversionmax−Conversionsample)/(Conversionmax−Conversionmin)*100 • Conversionmax means the conversion rate in the positive well without addition of compound • Conversionmin means the conversion rate in the well without addition of enzyme • Conversionsample means the conversion rate of test compounds
The dose-response (percent inhibition) curve was plotted and IC50 values were determined by GraphPad software.

T1 sequence (P10635 whole entry): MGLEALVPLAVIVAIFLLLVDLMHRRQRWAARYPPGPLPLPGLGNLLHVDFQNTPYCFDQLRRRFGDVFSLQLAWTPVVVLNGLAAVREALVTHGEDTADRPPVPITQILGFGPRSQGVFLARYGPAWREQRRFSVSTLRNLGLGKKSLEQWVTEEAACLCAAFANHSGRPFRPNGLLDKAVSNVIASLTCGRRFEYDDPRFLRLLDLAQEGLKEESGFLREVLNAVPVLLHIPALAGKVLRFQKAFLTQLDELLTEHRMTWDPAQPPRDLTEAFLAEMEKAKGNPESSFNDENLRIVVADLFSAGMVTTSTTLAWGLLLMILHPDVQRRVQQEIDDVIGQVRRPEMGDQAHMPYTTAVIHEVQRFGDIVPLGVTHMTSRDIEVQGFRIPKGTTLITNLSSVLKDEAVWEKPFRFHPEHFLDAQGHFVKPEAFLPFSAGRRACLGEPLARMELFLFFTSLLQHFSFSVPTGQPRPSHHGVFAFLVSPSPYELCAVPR

| SMILES | IC50 [1] | IC50 [2] | IC50 [3] |
| --- | --- | --- | --- |
| C[C@@H](C#N)NC(=O)c1ccc(-c2nc(Nc3cnn(C4CCN(C)CC4)c3)ncc2Cl)cc1 [Example 43, (S)-4-(5-Chloro-2-((1-(1-methylpiperidin-4-yl)-1H-pyrazol-4-yl)amino)pyrimidin-4-yl)-N-(1-cyanoethyl)benzamide] | > 50 µM | > 50 µM |  |
| Cc1cnc(Nc2cnn(C3CC(C)(C)OC(C)(C)C3)c2)nc1-c1ccc(C(=O)NCC#N)cc1 [Example 113, N-(cyanomethyl)-4-(5-methyl-2-((1-(2,2,6,6-tetramethyltetrahydro-2H-pyran-4-yl)-1H-pyrazol-4-yl)amino)pyrimidin-4-yl)benzamide] | 35.4 µM | > 50 µM |  |
| CC[C@@H](C#N)NC(=O)c1ccc(-c2nc(Nc3cnn(C4CCNCC4)c3)ncc2Cl)cc1 [Example 183, (S)-4-(5-chloro-2-((1-(piperidin-4-yl)-1H-pyrazol-4-yl)amino)pyrimidin-4-yl)-N-(1-cyanopropyl)benzamide] | 42 µM | > 50 µM |  |
| Cn1cc(Nc2ncc(Cl)c(-c3ccc(C(=O)NCC#N)cc3)n2)cn1 [Example 34, 4-(5-Chloro-2-((1-methyl-1H-pyrazol-4-yl)amino)pyrimidin-4-yl)-N-(cyanomethyl)benzamide] |  |  | 0.0155 µM |
| Cc1cnc(Nc2cnn(C)c2)nc1-c1ccc(C(=O)NC(C)C)cc1 [Example 223, N-isopropyl-4-(5-methyl-2-((1-methyl-1H-pyrazol-4-yl)amino)pyrimidin-4-yl)benzamide] |  |  | 2.83 µM |
| C[C@@H](C#N)NC(=O)c1ccc(-c2nc(Nc3cnn(C)c3)ncc2Cl)cc1 [Example 125, (S)-4-(5-chloro-2-((1-methyl-1H-pyrazol-4-yl)amino)pyrimidin-4-yl)-N-(1-cyanoethyl)benzamide] |  |  | 0.0438 µM |
| CC[C@@H](C#N)NC(=O)c1ccc(-c2nc(Nc3cnn(C4CCN(C)CC4)c3)ncc2C)cc1 [Example 184, (S)—N-(1-Cyanopropyl)-4-(5-methyl-2-((1-(1-methylpiperidin-4-yl)-1H-pyrazol-4-yl)amino)pyrimidin-4-yl)benzamide] | > 50 µM | > 50 µM |  |
| Cc1cnc(Nc2cnn(C3CCN(C(=O)CO)CC3)c2)nc1-c1ccc(C(=O)N[C@@H](C)C#N)cc1 [Example 119, (S)—N-(1-cyanoethyl)-4-(2-((1-(1-(2-hydroxyacetyl)piperidin-4-yl)-1H-pyrazol-4-yl)amino)-5-methylpyrimidin-4-yl)benzamide] | > 50 µM | > 50 µM |  |
| CC[C@@H](C#N)NC(=O)c1ccc(-c2nc(Nc3cnn(C4CC4)c3)ncc2Cl)cc1 [Example 61, (S)-4-(5-chloro-2-((1-cyclopropyl-1H-pyrazol-4-yl)amino)pyrimidin-4-yl)-N-(1-cyanopropyl)benzamide] |  |  | 0.0115 µM |
| C[C@@H](C#N)NC(=O)c1ccc(-c2nc(Nc3cnn(C4CC4)c3)ncc2Cl)cc1 [Example 111, (S)-4-(5-Chloro-2-((1-cyclopropyl-1H-pyrazol-4-yl)amino)pyrimidin-4-yl)-N-(1-cyanoethyl)benzamide] |  |  | 0.0119 µM |
| C[C@@H](C#N)NC(=O)c1ccc(-c2nc(Nc3cnn(C4CCNCC4)c3)ncc2Cl)cc1 [Example 165, (S)-4-(5-chloro-2-((1-(piperidin-4-yl)-1H-pyrazol-4-yl)amino)pyrimidin-4-yl)-N-(1-cyanoethyl)benzamide] | > 50 µM | > 50 µM |  |
| CNC(=O)c1ccc(-c2nc(Nc3cnn(C)c3)ncc2C)cc1 [Example 10, N-Methyl-4-(5-methyl-2-((1-methyl-1H-pyrazol-4-yl)amino)pyrimidin-4-yl)benzamide] |  |  | 2.04 µM |
| Cc1cnc(Nc2cnn(CC#N)c2)nc1-c1ccc(C(=O)NCC#N)cc1 [Example 4, N-(Cyanomethyl)-4-(2-((1-(cyanomethyl)-1H-pyrazol-4-yl)amino)-5-methylpyrimidin-4-yl)benzamide] | > 50 µM | 45.8 µM |  |
| CCNC(=O)c1ccc(-c2nc(Nc3cnn(C)c3)ncc2C)cc1 [Example 222, N-ethyl-4-(5-methyl-2-((1-methyl-1H-pyrazol-4-yl)amino)pyrimidin-4-yl)benzamide] |  |  | 4.32 µM |
